“And” between values parts separate entries of the source, which are not always exact repeats. Equal values may be shown once. Inconclusive results and toxic doses are left out. No stated cut-off is given here; in the data, active means T/C of 150% or more; inactive means T/C below 125%.
Tested on: L1210 leukemia ip in BDF1 mice, survival T/C
Assay: NCI In Vivo Anticancer Drug Screen. Data for tumor model L1210 Leukemia (intraperitoneal) in B6D2F1 (BDF1) mice
Settings: endpoint: mean survival time, higher = longer survival
Method in brief: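 In this screen, tumor-bearing mice given compound are compared to those given vehicle, and their survival values are reported as a treated-to-control quotient.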

[1] = dose: 25.0 mg/kg/injection, schedule: Q04DX003 (ip), vehicle: saline with Tween-80
[2] = dose: 100.0 mg/kg/injection, schedule: Q04DX003 (ip), vehicle: saline with Tween-80
[3] = dose: 100.0 mg/kg/injection, schedule: Q04DX003 (ip), vehicle: Klucel (hydroxypropylcellulose) (HPC)
[4] = dose: 200.0 mg/kg/injection, schedule: Q04DX003 (ip), vehicle: Klucel (hydroxypropylcellulose) (HPC)
[5] = dose: 400.0 mg/kg/injection, schedule: Q04DX003 (ip), vehicle: Klucel (hydroxypropylcellulose) (HPC)
[6] = dose: 50.0 mg/kg/injection, schedule: Q01DX009 (ip), vehicle: saline
[7] = dose: 100.0 mg/kg/injection, schedule: Q04DX003 (ip), vehicle: saline
[8] = dose: 200.0 mg/kg/injection, schedule: Q04DX003 (ip), vehicle: saline
[9] = dose: 100.0 mg/kg/injection, schedule: Q01DX001 (ip), vehicle: Klucel (hydroxypropylcellulose) (HPC)
[10] = dose: 200.0 mg/kg/injection, schedule: Q01DX001 (ip), vehicle: Klucel (hydroxypropylcellulose) (HPC)
[11] = dose: 400.0 mg/kg/injection, schedule: Q01DX001 (ip), vehicle: Klucel (hydroxypropylcellulose) (HPC)
[12] = dose: 25.0 mg/kg/injection, schedule: Q01DX009 (ip), vehicle: saline
[13] = dose: 12.5 mg/kg/injection, schedule: Q01DX009 (ip), vehicle: saline
[14] = dose: 100.0 mg/kg/injection, schedule: Q01DX001 (ip), vehicle: saline
[15] = dose: 100.0 mg/kg/injection, schedule: Q01DX009 (ip), vehicle: Klucel (hydroxypropylcellulose) (HPC)
[16] = dose: 200.0 mg/kg/injection, schedule: Q01DX001 (ip), vehicle: saline
[17] = dose: 200.0 mg/kg/injection, schedule: Q01DX009 (ip), vehicle: Klucel (hydroxypropylcellulose) (HPC)
[18] = dose: 400.0 mg/kg/injection, schedule: Q01DX001 (ip), vehicle: saline
[19] = dose: 400.0 mg/kg/injection, schedule: Q01DX009 (ip), vehicle: Klucel (hydroxypropylcellulose) (HPC)
[20] = dose: 400.0 mg/kg/injection, schedule: Q04DX003 (ip), vehicle: saline
[21] = dose: 200.0 mg/kg/injection, schedule: Q01DX009 (ip), vehicle: saline

Measured: T/C

c1ccc2c(c1)[nH]c1ccncc12
inactive: [1] 101 % of control | dose: 50.0 mg/kg/injection, schedule: Q04DX003 (ip), vehicle: saline with Tween-80 95 % of control | [2] 97 % of control

NC(C(=O)O)c1cc(Cl)co1 (stereo not drawn)
inactive: [3] 105 % of control | [4] 105 % of control | [5] 101 % of control

Clc1ccc(/C=N/Nc2nc3ccccc3s2)cc1Cl
inactive: dose: 40.0 mg/kg/injection, schedule: Q01DX Z (ip), vehicle: methylcellulose (MC) 88 % of control | dose: 60.0 mg/kg/injection, schedule: Q01DX Z (ip), vehicle: methylcellulose (MC) 103 % of control | dose: 90.0 mg/kg/injection, schedule: Q01DX Z (ip), vehicle: methylcellulose (MC) 94 % of control

[O-][n+]1ccccc1F
inactive: dose: 5.0 mg/kg/injection, schedule: Q01DX001 (ip), vehicle: saline 100 % of control | dose: 10.0 mg/kg/injection, schedule: Q01DX001 (ip), vehicle: saline 102 % of control | dose: 20.0 mg/kg/injection, schedule: Q01DX001 (ip), vehicle: saline 103 % of control | dose: 40.0 mg/kg/injection, schedule: Q01DX001 (ip), vehicle: saline 96 % of control | dose: 80.0 mg/kg/injection, schedule: Q01DX001 (ip), vehicle: saline 98 % of control

CN(C)C
inactive: [6] 101 % of control | dose: 100.0 mg/kg/injection, schedule: Q04DX002 (ip), vehicle: saline 105 % of control | [7] 98 % of control | dose: 200.0 mg/kg/injection, schedule: Q04DX002 (ip), vehicle: saline 97 % of control | [8] 94 % of control

CCN1C(=O)Cc2ccccc21
inactive: [9] 98 % of control | [10] 102 % of control | [11] 93 % of control

N=C(N)SCc1ccc(CSC(=N)N)cc1
inactive: dose: 12.5 mg/kg/injection, schedule: Q04DX002 (ip), vehicle: saline with Tween-80 102 % of control | [12] 91 % of control | dose: 25.0 mg/kg/injection, schedule: Q04DX002 (ip), vehicle: saline with Tween-80 94 % of control | dose: 25.0 mg/kg/injection, schedule: Q04DX003 (ip), vehicle: saline 103 % of control | [6] 97 % of control | dose: 50.0 mg/kg/injection, schedule: Q04DX003 (ip), vehicle: saline 102 % of control | [7] 105 % of control

FCCCC1CCCCN1 (stereo not drawn)
inactive: [13] 98 % of control | [12] 102 % of control | [6] 96 % of control and 109 % of control

CN(CCO)Cc1ccc2ccccc2c1
inactive: dose: 150.0 mg/kg/injection, schedule: Q01DX015 (ip), vehicle: saline 92 % of control

Nc1nc(N)c2c(n1)SCC(c1ccc(Cl)cc1)=N2
inactive: dose: 75.0 mg/kg/injection, schedule: Q01DX001 (ip), vehicle: other 101 % of control | dose: 150.0 mg/kg/injection, schedule: Q01DX001 (ip), vehicle: other 98 % of control

CCCCCCCCCC=C(c1cccc2ccccc12)c1cccc2ccccc12
inactive: dose: 100.0 mg/kg/injection, schedule: Q01DX001 (ip), vehicle: other 93 % of control | dose: 200.0 mg/kg/injection, schedule: Q01DX001 (ip), vehicle: other 96 % of control | dose: 400.0 mg/kg/injection, schedule: Q01DX001 (ip), vehicle: other 102 % of control

O=C(O)C1C2CC(C(Br)C2Br)C1C(=O)O (stereo not drawn)
inactive: [14] 98 % of control | [15] 95 % of control | dose: 100.0 mg/kg/injection, schedule: Q01DX009 (ip), vehicle: acetone 98 % of control | [3] 100 % of control | [7] 94 % of control | [16] 95 % of control | [17] 97 % of control | dose: 200.0 mg/kg/injection, schedule: Q01DX009 (ip), vehicle: acetone 93 % of control | [4] 103 % of control | [8] 94 % of control | [18] 96 % of control | [19] 98 % of control | dose: 400.0 mg/kg/injection, schedule: Q01DX009 (ip), vehicle: acetone 104 % of control | [5] 105 % of control | [20] 91 % of control

COC(=O)c1ccccc1C(=O)OCC(C)(C)[N+](=O)[O-]
inactive: [3] 100 % of control | [4] 97 % of control | [5] 107 % of control

O=CN/N=C/c1c[nH]c(=O)[nH]c1=O
inactive: [14] 101 % of control | [16] 106 % of control | [18] 95 % of control

CC(O)C[As](=O)(O)c1ccc(Cl)cc1 (stereo not drawn)
inactive: [1] 94 % of control

Oc1ccc(C=NCCN=Cc2ccc(O)cc2O)c(O)c1
inactive: dose: 8.0 mg/kg/injection, schedule: Q01DX009 (ip), vehicle: saline with Tween-80 87 % of control | dose: 12.0 mg/kg/injection, schedule: Q01DX009 (ip), vehicle: saline with Tween-80 89 % of control

Cc1ccc(S(=O)(=O)Nc2ccc(Br)cc2)cc1
inactive: dose: 100.0 mg/kg/injection, schedule: Q01DX001 (ip), vehicle: carboxymethylcellulose (CMC) 105 % of control | dose: 200.0 mg/kg/injection, schedule: Q01DX001 (ip), vehicle: carboxymethylcellulose (CMC) 105 % of control | dose: 400.0 mg/kg/injection, schedule: Q01DX001 (ip), vehicle: carboxymethylcellulose (CMC) 107 % of control

CNC(=O)N1CC(C)OC(C)C1 (stereo not drawn)
inactive: [7] 115 % of control | [21] 92 % of control | [8] 105 % of control | dose: 400.0 mg/kg/injection, schedule: Q01DX009 (ip), vehicle: saline 107 % of control | [20] 101 % of control

CCCOC(=O)c1ccccc1
inactive: [9] 100 % of control | [10] 97 % of control | [11] 97 % of control

O=c1[nH]c(=O)[nH]c(=O)[nH]1
inactive: [15] 100 % of control | [7] 90 % of control | [17] 91 % of control | [8] 90 % of control | [19] 101 % of control | [20] 98 % of control

ClCC1COC(c2ccccc2)O1 (stereo not drawn)
inactive: dose: 5.8 mg/kg/injection, schedule: Q01DX Z (ip), vehicle: methylcellulose (MC) 112 % of control | dose: 8.8 mg/kg/injection, schedule: Q01DX Z (ip), vehicle: methylcellulose (MC) 102 % of control | dose: 13.3 mg/kg/injection, schedule: Q01DX Z (ip), vehicle: methylcellulose (MC) 115 % of control | dose: 20.0 mg/kg/injection, schedule: Q01DX Z (ip), vehicle: methylcellulose (MC) 97 % of control

CCOC(=O)c1ccccc1NC(c1ccccc1)c1ccc2cccnc2c1O (stereo not drawn)
inactive: [14] 101 % of control | [16] 97 % of control | [18] 91 % of control

CC[N+]1(Cc2ccccc2)CC2(CCCCC2)ON2C1CC(C)C2(C)C (stereo not drawn)
inactive: [2] 91 % of control

CC(C)Cc1ccc(C(=O)O)cc1
inactive: [15] 94 % of control | [3] 97 % of control | [17] 94 % of control | [4] 108 % of control | [19] 94 % of control | [5] 102 % of control

CC(=O)Nc1ccc(SCCCc2c(N)nc(N)nc2N)cc1
inactive: [3] 100 % of control | [4] 99 % of control | [5] 97 % of control

CCOC(=O)C(C(=O)O)(C(c1ccccc1)c1ccccc1)C(c1ccccc1)c1ccccc1
inactive: dose: 75.0 mg/kg/injection, schedule: Q01DX001 (ip), vehicle: carboxymethylcellulose (CMC) 90 % of control

CC12CC3(C)CC(C)(C1)CC(NC(=O)N(CCCl)N=O)(C2)C3
active: dose: 20.0 mg/kg/injection, schedule: Q01DX001 (ip), vehicle: other 155 % of control | dose: 187.0 mg/kg/injection, schedule: Q01DX001 (ip), vehicle: other 162 % of control | dose: 250.0 mg/kg/injection, schedule: Q01DX001 (ip), vehicle: other 187 % of control | dose: 375.0 mg/kg/injection, schedule: Q01DX001 (ip), vehicle: other 211 % of control | dose: 500.0 mg/kg/injection, schedule: Q01DX001 (ip), vehicle: other 258 % of control | dose: 750.0 mg/kg/injection, schedule: Q01DX001 (ip), vehicle: other 274 % of control

CN(CO)c1nc(N(C)CO)nc(N(C)CO)n1
active: dose: 100.0 mg/kg/injection, schedule: Q01DX009 (ip), vehicle: saline 166 % of control
inactive: dose: 6.25 mg/kg/injection, schedule: Q01DX009 (ip), vehicle: saline 109 % of control | [13] 113 % of control | [12] 120 % of control | [21] 86 % of control

Source: PubChem BioAssay AID248 (DTP/NCI, 2004)
